Assay results: patent publication US20070225356A1, “Preventive and/or Therapeutic Agent for Chronic Sinusitis” (Kyowa Hakko Kogo Co., Ltd, priority 2004, published 2007)
Counter-ions that a name gives are not always drawn.

What was measured:
[1] = tested on: experimental allergic rhinitis model; conditions: guinea pigs; cited from earlier work
[2] = tested on: allergic rhinitis; conditions: Phase III test; cited from earlier work
[3] = tested on: patient diagnosed as chronic sinusitis; experiment: Test Example 1: effect of olopatadine hydrochloride on chronic sinusitis, one patient, CT and subjective symptoms; assay type: in vivo, human; conditions: for improvement of symptoms (polyp, headache, right nasal obstruction, purulent nasal discharge, closure of right olfactory cleft): administration of Klaricid and Neuzym for 2 months or more, same patient, before olopatadine hydrochloride
Method: A patient diagnosed as chronic sinusitis was orally daily administered with olopatadine hydrochloride (Allelock™ 5 mg tablet; Kyowa Hakko Kogyo Co., Ltd.) alone in a dose of one tablet two times (after breakfast and before bedtime) a day (10 mg/day) everyday. Before the administration of olopatadine hydrochloride and 2 months after the administration, computed tomography (CT) was performed to observe changes in symptoms. […] In administration of Klaricid™ (general name: clarithromycin) and Neuzym™ (general name: lysozyme chloride) for 2 months or more, improvement of these symptoms were not observed.

[4] = tested on: patients with chronic sinusitis complicated with perennial allergic rhinitis; experiment: Test Example 2: degree of improvement in symptoms, 24 patients, eighth week; assay type: in vivo, human; conditions: oral 10 mg/day, other medicines may be combined
Method: Patients (24 patients, average age 33.8 years old, duration 61.5±59.7 days) with chronic sinusitis complicated with perennial allergic rhinitis were orally administered with olopatadine hydrochloride (Allelock™ 5 mg tablet; Kyowa Hakko Kogyo Co., Ltd.) in a dose of one tablet two times-(after breakfast and before bedtime) a day (10 mg/day) everyday. In this case, Mucodyne™ (general name: carbocysteine), Dasen™ (general name: serrapeptase), Polaramine™ (general name: d-chlorpheniramine maleate), Klaricid™ (general name: clarithromycin) or the like may be combined. The combined use with such a medicine was filled in a survey sheet. Such a medicine had been given for treatment before this test. At the eighth week of the administration, degrees of improvement in 1) sneezing, 2) nasal drip, 3) nasal obstruction, 4) interference with daily life, 5) mucosal swelling, 6) headache and head heaviness, and 7) postnasal drip were examined for each patient. The degree of each symptom determined with reference according to “Nasal Allergy Diagnosis Guideline for 2002 (Revised Fourth Edition)”, and the degree of improvement in each symptom was evaluated for each patient having a corresponding symptom before the administration on the basis of the four stages, i.e., disappearance, significant improvement, improvement, and no change. In the case of more than improvement (disappearance, significant improvement, or improvement), the rate of improvement was evaluated as “effective” and calculated as a rate (%) of an effective number of patients relative to the number of patients (number of cases) having a corresponding symptom before administration.

[5] = tested on: patient with chronic sinusitis complicated with allergic rhinitis; experiment: Test Example 5: transitions of symptoms, CT and plain radiography, one patient; assay type: in vivo, human; set-up: key to Color of inferior turbinate mucosa (objective symptom grade): +++: (Pale); ++: (Red); +: (Light red); −: (Normal); key to Postnasal drip (subjective symptom grade): +++: Always; ++: Frequently; +: Sometimes; −: No
Method: A patient with chronic sinusitis complicated with allergic rhinitis was orally administered with olopatadine hydrochloride (Allelock™ 5 mg tablet; Kyowa Hakko Kogyo Co., Ltd.) alone in a dose of one tablet two times a day for 2 months (10 mg/day). The patient had developed serious sneezing, nasal obstruction, and postnasal drip about 5 and half years ago. The patient discontinued treatment when the subjective symptoms were relieved by intermittent medication. However, improvements in the symptoms were not observed before the start of treatment by administration of the above olopatadine hydrochloride. In addition, in a nasal discharge eosinophil test (an intermediate state between clusters of eosinophils and observable weak dispersion of eosinophils in nasal discharge) and a scratch test (house dust, candida, cedar, and orchard grass), the patient was positive before the start of administration, and the chronic sinusitis of the patient was recognized to be complicated with allergic rhinitis. […] The degree of each symptom was decided on the basis of Tables 3 and 4 in reference to “Nasal Allergy Diagnosis Guideline for 2002 (Revised Fourth Edition)”. In addition, computed tomography (CT) was conducted before the administration of olopatadine hydrochloride and 1 month after and 2 months after the administration, and plain radiography (Waters method) was conducted before the administration of olopatadine hydrochloride and 2 months after the administration to observe changes in the symptoms.

[6] = tested on: patient diagnosed as chronic sinusitis; experiment: Test Example 4: effect 3 on chronic sinusitis, one patient, 35-day schedule, plain radiography; assay type: in vivo, human
Method: (§1) A patient diagnosed as chronic sinusitis was administered with olopatadine hydrochloride (Allelock™ 5 mg tablet; Kyowa Hakko Kogyo Co., Ltd.) according to the prescription schedule below (35 days in total). 1. First 7 Days (Co-Administration) Three medicines were dosed together according to the following prescription. Olopatadine hydrochloride 5 mg tablet: oral dose of one tablet two times a day for 7 days (10 mg/day) Gatiflo™ (general name: gatifloxacin) 200 mg tablet: oral dose of one tablet two times a day for 4 days (400 mg/day) Mucodyne™ (general name: carbocysteine) 500 mg tablet: oral dose of one tablet three times a day for 7 days (1500 mg/day) 2. Next 14 Days (Co-Administration) Two medicines were further dosed together according to the following prescription. Olopatadine hydrochloride 5 mg tablet: oral dose of one tablet two times a day for 14 days (10 mg/day) Mucodyne™ 500 mg table: oral dose of one tablet three times a day for 14 days (1500 mg/day) 3. Next 14 Days (Single Administration) Furthermore, olopatadine hydrochloride was given according to the following prescription: Olopatadine hydrochloride 5 mg table: oral dose of one tablet two times a day for 14 days (10 mg/day) Plain radiography was conducted before the administration of the above medicines and 35 days after the administration to observe changes in the symptoms.

[7] = tested on: patient diagnosed as chronic sinusitis; experiment: Test Example 3: effect 2 on chronic sinusitis, one patient, 21-day schedule, plain radiography; assay type: in vivo, human
Method: as §1, with “(21” for “(35”, “prescription. Also, frequently used SG granules were also prescribed.” for “prescription.”, “(Single Administration of” for “(Co-Administration) Two medicines were further dosed together according to the following prescription.”, “Hydrochloride)” for “hydrochloride 5 mg tablet: oral dose of one tablet two times a day for 14 days (10 mg/day) Mucodyne™ 500 mg table: oral dose of one tablet three times a day for 14 days (1500 mg/day) 3. Next 14 Days (Single Administration)”, “tablet:” for “table:”, “21” for “35”

[8] = Two weeks after administration, oral 10 mg/day alone, before administration ++
[9] = single administration for 2 months, oral 10 mg/day
[10] = first 7 days, co-administration with Gatiflo (gatifloxacin) and Mucodyne (carbocysteine), oral 10 mg/day
[11] = next 14 days, co-administration with Mucodyne (carbocysteine), oral 10 mg/day
[12] = oral 10 mg/day alone for 2 months, one patient
[13] = next 14 days, single administration, oral 10 mg/day

CN(C)CC/C=C1/c2ccccc2COc2ccc(CC(=O)O)cc21 [compound 1, (Z)-11-(3-dimethylaminopropylidene)-6,11-dihydrodibenzo[b,e]oxepine-2-acetic acid]
nasal congestion reaction [1]: inhibitory action
nasal congestion of allergic rhinitis [2]: highly improve

lysozyme chloride [Neuzym]
improvement of symptoms (polyp, headache, right nasal obstruction, purulent nasal discharge, closure of right olfactory cleft) [3]: not observed

CC[C@H]1OC(=O)[C@H](C)[C@@H](O[C@H]2C[C@@](C)(OC)[C@@H](O)[C@H](C)O2)[C@H](C)[C@@H](O[C@@H]2O[C@H](C)C[C@H](N(C)C)[C@H]2O)[C@](C)(OC)C[C@@H](C)C(=O)[C@H](C)[C@@H](O)[C@]1(C)O [Klaricid, clarithromycin]
improvement of symptoms (polyp, headache, right nasal obstruction, purulent nasal discharge, closure of right olfactory cleft) [3]: not observed

CN(C)CC/C=C1/c2ccccc2COc2ccc(CC(=O)O)cc21 [olopatadine hydrochloride]
Postnasal drip: Rate of improvement ([4]; 3 cases): 100%
Postnasal drip: patients with Disappearance ([4]; 3 cases): 3
Postnasal drip: patients with Improvement ([4]; 3 cases): 0
Postnasal drip: patients with No change ([4]; 3 cases): 0
Postnasal drip: patients with Significant improvement ([4]; 3 cases): 0
Headache, head heaviness: Rate of improvement ([4]; 5 cases): 100%
Headache, head heaviness: patients with Disappearance ([4]; 5 cases): 5
Headache, head heaviness: patients with Improvement ([4]; 5 cases): 0
Headache, head heaviness: patients with No change ([4]; 5 cases): 0
Headache, head heaviness: patients with Significant improvement ([4]; 5 cases): 0
Sneezing: Rate of improvement ([4]; 12 cases): 91.7%
Sneezing: patients with Disappearance ([4]; 12 cases): 8
Sneezing: patients with Improvement ([4]; 12 cases): 3
Sneezing: patients with No change ([4]; 12 cases): 1
Sneezing: patients with Significant improvement ([4]; 12 cases): 0
Nasal drip: Rate of improvement ([4]; 15 cases): 73.3%
Nasal drip: patients with Disappearance ([4]; 15 cases): 4
Nasal drip: patients with Improvement ([4]; 15 cases): 5
Nasal drip: patients with No change ([4]; 15 cases): 4
Nasal drip: patients with Significant improvement ([4]; 15 cases): 2
Interference with daily life: Rate of improvement ([4]; 16 cases): 87.5%
Interference with daily life: patients with Disappearance ([4]; 16 cases): 3
Interference with daily life: patients with Improvement ([4]; 16 cases): 8
Interference with daily life: patients with No change ([4]; 16 cases): 2
Interference with daily life: patients with Significant improvement ([4]; 16 cases): 3
Mucosal Swelling: Rate of improvement ([4]; 16 cases): 87.5%
Mucosal Swelling: patients with Disappearance ([4]; 16 cases): 0
Mucosal Swelling: patients with Improvement ([4]; 16 cases): 13
Mucosal Swelling: patients with No change ([4]; 16 cases): 2
Mucosal Swelling: patients with Significant improvement ([4]; 16 cases): 1
Nasal obstruction: Rate of improvement ([4]; 16 cases): 87.5%
Nasal obstruction: patients with Disappearance ([4]; 16 cases): 4
Nasal obstruction: patients with Improvement ([4]; 16 cases): 7
Nasal obstruction: patients with No change ([4]; 16 cases): 2
Nasal obstruction: patients with Significant improvement ([4]; 16 cases): 3
Color of inferior turbinate mucosa (objective symptom grade) ([5]; One month after administration, oral 10 mg/day alone, before administration ++): −
Color of inferior turbinate mucosa (objective symptom grade) [5, 8]: −
Postnasal drip (subjective symptom grade) [5, 8]: +
mucosal swelling in the ethmoidal sinus and the maxillary sinus (CT image) ([5]; single administration for 1 month, oral 10 mg/day): significantly relieved
mucosal swelling in the ethmoidal sinus and the maxillary sinus (CT image) [5, 9]: substantially disappeared
shadows observed in the maxillary sinus indicating inflammation of chronic sinusitis (plain radiograph) [5, 9]: disappeared
shadows in the plain radiograph indicating sinusitis inflammation in the ethmoidal sinus and right and left maxillary sinuses ([6]; after a total of 35 days): completely disappeared
left cheek pain (facial pain) and malaise [6, 10]: disappeared
postnasal drip [6, 10]: not improved
purulent nasal discharge [6, 10]: decreased and substantially disappeared
all subjective symptoms ([6]; last 14 days, single administration, oral 10 mg/day): disappeared
nasal mucosal swelling and the like [6, 11]: disappeared
nasal symptoms such as purulent nasal discharge and postnasal drip [6, 11]: disappeared
polyp and soft-tissue density mass which filled the right nasal cavity (CT image) [3, 12]: substantially disappeared
soft-tissue density area which filled the right ethmoidal, right sphenoidal and right frontal sinus (CT image) [3, 12]: substantially disappeared
subjective symptoms such as nasal drip and headache [3, 12]: disappeared
swelling of the inside wall toward the nasal cavity side, closure of the right olfactory cleft due to mucosal thickening (CT image) [3, 12]: relieved
shadows in the plain radiograph indicating sinusitis inflammation in the ethmoidal sinus and right and left maxillary sinuses ([7]; after a total of 21 days (7 days co-administration, 14 days single)): completely disappeared
cheek pains (facial pain) and headache [7, 10]: disappeared
nasal symptoms such as purulent nasal discharge and nasal obstruction [7, 10]: improved
nasal mucosal swelling and the like [7, 13]: unobserved
nasal symptoms such as purulent nasal discharge and nasal obstruction [7, 13]: disappeared
